Assay results: paper PMC10145651, “Modulation of the 5-Lipoxygenase Pathway by Chalcogen-Containing Inhibitors of Leukotriene A4 Hydrolase” (International Journal of Molecular Sciences, 2023)

Key:
[1] = target: T1, LTA4H (Homo sapiens, UniProt P09960); set-up: made in house; host or cells: Escherichia coli JM101; method as in PMID 24591641; conditions: previously demonstrated; cited from earlier work
T1 sequence (P09960 1-611): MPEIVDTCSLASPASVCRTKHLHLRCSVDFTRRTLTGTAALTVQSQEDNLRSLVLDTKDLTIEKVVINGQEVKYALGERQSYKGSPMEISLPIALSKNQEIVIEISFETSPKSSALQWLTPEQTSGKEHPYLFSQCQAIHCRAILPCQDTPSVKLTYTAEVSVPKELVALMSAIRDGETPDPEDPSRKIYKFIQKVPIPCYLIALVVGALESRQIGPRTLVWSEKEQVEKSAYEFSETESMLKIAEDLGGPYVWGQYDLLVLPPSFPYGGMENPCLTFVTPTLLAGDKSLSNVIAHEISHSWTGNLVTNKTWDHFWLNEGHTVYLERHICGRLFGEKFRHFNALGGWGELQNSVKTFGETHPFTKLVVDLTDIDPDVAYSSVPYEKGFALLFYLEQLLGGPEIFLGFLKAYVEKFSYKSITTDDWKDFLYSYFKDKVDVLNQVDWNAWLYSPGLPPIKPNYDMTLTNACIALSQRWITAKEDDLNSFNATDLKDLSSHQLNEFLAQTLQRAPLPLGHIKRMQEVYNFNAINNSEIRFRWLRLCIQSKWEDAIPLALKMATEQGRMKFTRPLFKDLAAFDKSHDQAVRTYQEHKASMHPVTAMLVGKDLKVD

[2] = system: peripheral blood-derived monocytes; assay: MTT cytotoxicity assay with monocytes; type: cell-based, human; conditions: lower concentrations (less than 30 µM); MTT and LDH assays, Figure S3
Method: Human primary leukocytes were isolated from peripheral blood of healthy adult volunteers provided by the Institute of Transfusion Medicine at the University Hospital Greifswald as described before. All methods were performed in accordance with the Declaration of Helsinki. […] The remaining erythrocytes were removed by hypotonic lysis using water, and resulting polymorphonuclear neutrophils (PMNs) were resuspended in PBS containing 0.1% (w/v) glucose (PG buffer) or PG buffer with 1 mM CaCl2 (PGC buffer) as indicated.
Then, cells were incubated with 5 mg/mL MTT in PBS until the blue staining of the vehicle-containing control cells. Formazan formation was stopped by 100 µL of 10% (w/v in 20 mM HCl) SDS lysis buffer and followed by shaking overnight. Finally, absorbance was measured at 570 nm with a SpectraMax® i3x multi-mode detection platform (Molecular Devices, San Jose, CA, USA). The pan-protein kinase inhibitor staurosporine (1 µM) was used as a cytotoxic control inhibitor.

[3] = target: T1, LTA4H; assay: Aminopeptidase assay of LTA4H with the PGP substrate; type: biochemical; set-up: made in house; host or cells: Escherichia coli JM101; conditions: 800 μM PGP, 0–100 μM inhibitor
Method: The reaction was stopped by addition of 150 μL of acetic acid. To detect and quantify released N-terminal proline, incubations with 150 μL of ninhydrin solution (25 mg/mL) were carried out at 100 °C for 45 min. Samples were cooled down and purple-colored ninhydrin conjugates were extracted with 350 μL toluene and the upper phase was transferred to a polypropylene 96-well plate (Greiner Bio-One, Kremsmünster, Austria). All incubations were carried out in triplicates and absorbance was measured at 495 nm using a TECAN Infinite M200 plate reader. Specific peptidase activities were determined based on the standard curve of free L-proline (Figure S10).

Structure (SMILES)	effect on PGP cleavage by LTA4H [1]	safety in human leukocytes (cytotoxicity assays) [2]	effect on the cleavage of the PGP tripeptide by recombinant LTA4H [3]
Nc1nc(-c2ccc(Cc3ccccc3)cc2)cs1 [ARM1, 4-(4-benzylphenyl) thiazol-2-amine, reference compound]	remains unaffected	safe	–
Nc1nc(-c2ccc(Cc3ccccc3)cc2)co1 [TTO, 4-(4-benzylphenyl) oxazol-2-amine]	–	safe	did not influence
Nc1nc(-c2ccc(Cc3ccccc3)cc2)c[se]1 [TTSe, 4-(4-benzylphenyl) selenazol-2-amine]	–	safe	did not influence
